Data published in patent US20250018047A1, “METHODS AND COMPOSITIONS FOR TARGETED PROTEIN DEGRADATION” (Ranok Therapeutics (Hangzhou) Co. Ltd., priority 2021, published 2025).

What was measured:
[1] = molecular target: T1, KRAS(G12D)/SOS1 (Homo sapiens, UniProt P01116, G12D); assay: KRAS(G12D)/SOS1 homogeneous time-resolved fluorescence (HTRF) assay; assay type: binding; conditions: absence of GTP, 4° C. for 3 hr
T1 construct: purchased Cisbio 63ADK000CB16PEG
Procedure: The test compound was mixed and incubated with reaction components, incubated in a sealed plate at 4° C. for 3 hr and fluorescence was measured using a PerkinElmer Envision plate reader.

[2] = tested on: AsPC-1 human pancreatic adenocarcinoma; assay: CellTiter-Glo cancer cell line proliferation assay, AsPC-1; assay type: cell-based; conditions: Homo sapiens, ASPC1, 24 hr
Procedure: (§1) Cell lines were cultured according to ATCC and recommendations.
(§2) CellTiter-Glo® Reagent Cancer Cell Line Proliferation Assays
(§3) Cells were plated in 96-well tissue culture plates at 4,000 cells/well and incubated at 37° C./5% CO2 for 24 hr in 100 μl of media. […] Cells were then treated with test compounds at various concentrations with a final concentration of 0.5% DMSO/well, and then incubated at 37° C./5% CO2 for 24 hr. 100 μl of CellTiter-Glo® Reagent (Promega Corporation, Madison, WI) was added to each well and processed according manufacturer's protocol. Results were analyzed and IC50-values were calculated in GraphPad 7 software.

[3] = tested on: A-427 human lung carcinoma; assay: CellTiter-Glo cancer cell line proliferation assay, A-427; assay type: cell-based; conditions: Homo sapiens, A-427, 24 hr, read-out: A427 at 24 hrs, IC50
Procedure: as §1, §2, §3

[4] = molecular target: T2, KRAS(G12D) (Homo sapiens, UniProt P01116, G12D); assay: SW1990 WB assay (degradation DC50, Dmax); assay type: cell-based; conditions: Western blot, SW1990 cells
T2 construct: endogenous in cells; host or cells: SW1990
T2 sequence (P01116 1-188 isoform P01116-2 G12D): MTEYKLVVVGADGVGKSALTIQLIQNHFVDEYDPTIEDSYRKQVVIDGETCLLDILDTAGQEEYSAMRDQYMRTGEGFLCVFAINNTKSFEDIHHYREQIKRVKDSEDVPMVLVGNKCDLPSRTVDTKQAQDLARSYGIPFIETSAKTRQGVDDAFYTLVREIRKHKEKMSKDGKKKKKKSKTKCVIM

T1 sequence (P01116 1-188 isoform P01116-2 G12D): as above

Structure (SMILES)	IC50 [1] [nM]	IC50 [2] [nM]	IC50 [3] [nM]	DC50 [4] [nM]	Dmax [4] [%]
CN1C[C@H](N2CCN(C(=O)C3CCN(c4ccc5c(c4)C(=O)N(C4CCC(=O)NC4=O)C5=O)CC3)CC2)C[C@@H]1COc1nc(N2CC3CCC(C2)N3)c2cnc(-c3cc(O)cc4ccccc34)c(F)c2n1 (stereo partly drawn) [Compound 37]	< 100	> 1000	> 1000		
O=C1CCC(N2C(=O)c3ccc(N4CCC(C(=O)N5CCN(CC6(COc7nc(N8CC9CCC(C8)N9)c8cnc(-c9cc(O)cc%10ccccc9%10)c(F)c8n7)CC6)CC5)CC4)cc3C2=O)C(=O)N1 (stereo not drawn) [Compound 39]	< 100	> 1000	> 1000		
O=C1CCC(N2Cc3cc(CN4CCN(CC5(COc6nc(N7CC8CCC(C7)N8)c7cnc(-c8cc(O)cc9ccccc89)c(F)c7n6)CC5)CC4)ccc3C2=O)C(=O)N1 (stereo not drawn) [Compound 40]	< 100	> 1000	> 1000		
O=C1CCC(N2C(=O)c3ccc(CN4CCN(CC5(COc6nc(N7CC8CCC(C7)N8)c7cnc(-c8cc(O)cc9ccccc89)c(F)c7n6)CC5)CC4)cc3C2=O)C(=O)N1 (stereo not drawn) [Compound 41]	< 100	> 1000	> 1000		
O=C1CCC(N2C(=O)c3cccc(N4CCC(CN5CCN(CC6(COc7nc(N8CC9CCC(C8)N9)c8cnc(-c9cc(O)cc%10ccccc9%10)c(F)c8n7)CC6)CC5)CC4)c3C2=O)C(=O)N1 (stereo not drawn) [Compound 42]	< 100	> 1000	> 1000		
CN1C[C@H](N2CCN(C(=O)C3CCN(c4ccc5c(c4)CN(C4CCC(=O)NC4=O)C5=O)CC3)CC2)C[C@@H]1COc1nc(N2CC3CCC(C2)N3)c2cnc(-c3cc(O)cc4ccccc34)c(F)c2n1 (stereo partly drawn) [Compound 44]	< 100	> 1000	> 1000		
CN1C[C@H](N2CCC(C(=O)N3CCN(c4ccc5c(c4)C(=O)N(C4CCC(=O)NC4=O)C5=O)CC3)CC2)C[C@@H]1COc1nc(N2CC3CCC(C2)N3)c2cnc(-c3cc(O)cc4ccccc34)c(F)c2n1 (stereo partly drawn) [Compound 46]	< 100	> 1000	> 1000		
O=C1CCC(N2C(=O)c3ccc(N4CCC(CN5CCN(CC6(COc7nc(N8CC9CCC(C8)N9)c8cnc(-c9cc(O)cc%10ccccc9%10)c(F)c8n7)CC6)CC5)CC4)cc3C2=O)C(=O)N1 (stereo not drawn) [Compound 47]	< 100	> 1000	> 1000		
C#Cc1cccc2cccc(-c3ncc4c(N5CC6CCC(C5)N6)nc(OCC5(CN6CCN(CC7CCN(c8ccc9c(c8)C(=O)N(C8CCC(=O)NC8=O)C9=O)CC7)CC6)CC5)nc4c3F)c12 (stereo not drawn) [Compound 48]	< 100	> 1000	> 1000		
O=C1CCC(N2C(=O)c3ccc(CN4CCN([C@H]5CN6CCC[C@@]6(COc6nc(N7CC8CCC(C7)N8)c7cnc(-c8cc(O)cc9ccccc89)c(F)c7n6)C5)CC4)cc3C2=O)C(=O)N1 (stereo partly drawn) [Compound 50]	< 100	> 1000	> 1000		
C#Cc1cccc2cccc(-c3ncc4c(N5CC6CCC(C5)N6)nc(OCC5(CN6CCN(C(=O)C7CCN(c8ccc9c(c8)CN(C8CCC(=O)NC8=O)C9=O)CC7)CC6)CC5)nc4c3F)c12 (stereo not drawn) [Compound 51]	< 100	> 1000	> 1000		
C#Cc1cccc2cc(O)cc(-c3ncc4c(N5CC6CCC(C5)N6)nc(OCC5(CN6CCN(CC7CCN(c8ccc9c(c8)C(=O)N(C8CCC(=O)NC8=O)C9=O)CC7)CC6)CC5)nc4c3F)c12 (stereo not drawn) [Compound 56]	< 100		100 to 1000	< 100	> 50
C#Cc1cccc2cc(O)cc(-c3ncc4c(N5CC6CCC(C5)N6)nc(OCC5(CN6CCN(CC7CCN(c8ccc9c(c8)CN(C8CCC(=O)NC8=O)C9=O)CC7)CC6)CC5)nc4c3F)c12 (stereo not drawn) [Compound 57]	< 100	< 100	< 100	< 100	> 50
C#Cc1c(F)ccc2cc(O)cc(-c3ncc4c(N5CC6CCC(C5)N6)nc(OCC5(CN6CCN(CC7CCN(c8ccc9c(c8)C(=O)N(C8CCC(=O)NC8=O)C9=O)CC7)CC6)CC5)nc4c3F)c12 (stereo not drawn) [Compound 59]	< 100	100 to 1000	100 to 1000		
COc1nc(-c2cc(O)cc3ccccc23)c(F)c2nc(OCC3(CN4CCN(CC5CCN(c6ccc7c(c6)C(=O)N(C6CCC(=O)NC6=O)C7=O)CC5)CC4)CC3)nc(N3CC4CCC(C3)N4)c12 (stereo not drawn) [Compound 66]	< 100	100 to 1000	100 to 1000		
